Where two headings read alike, the source gives them in different places.
Key:
Assay in all cases: biochemical
DRAK2 = biological target: T1, DRAK2 (Homo sapiens, UniProt O94768)
T1 sequence (O94768 1-372): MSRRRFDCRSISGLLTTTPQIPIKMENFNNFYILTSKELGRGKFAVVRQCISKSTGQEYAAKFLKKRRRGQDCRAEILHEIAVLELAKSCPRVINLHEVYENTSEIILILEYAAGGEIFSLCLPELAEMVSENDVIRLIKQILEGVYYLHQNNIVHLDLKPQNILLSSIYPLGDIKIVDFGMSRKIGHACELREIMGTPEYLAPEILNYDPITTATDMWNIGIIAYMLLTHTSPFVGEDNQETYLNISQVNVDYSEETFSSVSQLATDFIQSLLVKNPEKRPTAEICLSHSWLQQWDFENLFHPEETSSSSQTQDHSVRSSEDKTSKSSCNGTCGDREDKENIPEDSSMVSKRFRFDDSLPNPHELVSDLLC

EphA7 = EphA7 (Homo sapiens, UniProt Q15375)
MAP3K5 = biological target: T2, MAP3K5 (Homo sapiens, UniProt Q99683)
T2 sequence (Q99683 1-1374): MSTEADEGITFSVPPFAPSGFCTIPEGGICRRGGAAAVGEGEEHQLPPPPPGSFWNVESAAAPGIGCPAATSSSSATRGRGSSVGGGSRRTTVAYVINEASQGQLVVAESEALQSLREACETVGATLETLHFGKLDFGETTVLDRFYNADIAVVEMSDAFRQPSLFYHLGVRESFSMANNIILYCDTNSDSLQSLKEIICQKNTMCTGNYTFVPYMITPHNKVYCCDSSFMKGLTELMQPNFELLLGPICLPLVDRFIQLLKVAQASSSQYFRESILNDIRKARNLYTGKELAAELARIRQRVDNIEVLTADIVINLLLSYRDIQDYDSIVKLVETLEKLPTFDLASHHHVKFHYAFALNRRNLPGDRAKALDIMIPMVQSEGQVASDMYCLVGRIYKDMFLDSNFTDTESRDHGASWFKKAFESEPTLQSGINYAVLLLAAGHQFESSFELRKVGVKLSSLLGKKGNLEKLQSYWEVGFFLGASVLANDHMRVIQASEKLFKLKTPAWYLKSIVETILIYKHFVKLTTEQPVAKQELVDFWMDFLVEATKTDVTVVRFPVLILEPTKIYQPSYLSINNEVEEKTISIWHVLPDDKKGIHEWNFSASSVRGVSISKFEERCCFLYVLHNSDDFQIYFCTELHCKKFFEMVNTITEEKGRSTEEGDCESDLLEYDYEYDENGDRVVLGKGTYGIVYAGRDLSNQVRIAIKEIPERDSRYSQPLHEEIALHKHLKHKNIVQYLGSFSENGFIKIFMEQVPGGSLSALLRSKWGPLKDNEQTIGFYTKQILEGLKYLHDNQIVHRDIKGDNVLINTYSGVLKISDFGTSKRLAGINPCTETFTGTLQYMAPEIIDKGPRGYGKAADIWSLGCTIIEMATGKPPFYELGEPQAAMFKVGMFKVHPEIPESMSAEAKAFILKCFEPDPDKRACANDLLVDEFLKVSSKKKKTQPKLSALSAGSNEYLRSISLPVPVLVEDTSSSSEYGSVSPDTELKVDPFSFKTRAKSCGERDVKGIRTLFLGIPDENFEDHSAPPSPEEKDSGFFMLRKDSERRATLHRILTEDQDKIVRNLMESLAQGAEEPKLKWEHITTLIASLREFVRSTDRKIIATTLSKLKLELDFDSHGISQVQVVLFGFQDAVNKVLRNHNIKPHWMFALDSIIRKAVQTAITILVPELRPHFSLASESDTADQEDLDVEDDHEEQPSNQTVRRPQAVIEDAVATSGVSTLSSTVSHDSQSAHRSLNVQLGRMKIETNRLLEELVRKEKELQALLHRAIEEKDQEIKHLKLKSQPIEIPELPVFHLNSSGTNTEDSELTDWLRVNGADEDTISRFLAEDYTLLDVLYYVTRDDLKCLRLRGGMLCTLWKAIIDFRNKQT

NEK7 = NEK7 (Homo sapiens, UniProt Q8TDX7)
PLK4 = biological target: T3, PLK4 (Homo sapiens, UniProt O00444)
T3 sequence (O00444 1-970): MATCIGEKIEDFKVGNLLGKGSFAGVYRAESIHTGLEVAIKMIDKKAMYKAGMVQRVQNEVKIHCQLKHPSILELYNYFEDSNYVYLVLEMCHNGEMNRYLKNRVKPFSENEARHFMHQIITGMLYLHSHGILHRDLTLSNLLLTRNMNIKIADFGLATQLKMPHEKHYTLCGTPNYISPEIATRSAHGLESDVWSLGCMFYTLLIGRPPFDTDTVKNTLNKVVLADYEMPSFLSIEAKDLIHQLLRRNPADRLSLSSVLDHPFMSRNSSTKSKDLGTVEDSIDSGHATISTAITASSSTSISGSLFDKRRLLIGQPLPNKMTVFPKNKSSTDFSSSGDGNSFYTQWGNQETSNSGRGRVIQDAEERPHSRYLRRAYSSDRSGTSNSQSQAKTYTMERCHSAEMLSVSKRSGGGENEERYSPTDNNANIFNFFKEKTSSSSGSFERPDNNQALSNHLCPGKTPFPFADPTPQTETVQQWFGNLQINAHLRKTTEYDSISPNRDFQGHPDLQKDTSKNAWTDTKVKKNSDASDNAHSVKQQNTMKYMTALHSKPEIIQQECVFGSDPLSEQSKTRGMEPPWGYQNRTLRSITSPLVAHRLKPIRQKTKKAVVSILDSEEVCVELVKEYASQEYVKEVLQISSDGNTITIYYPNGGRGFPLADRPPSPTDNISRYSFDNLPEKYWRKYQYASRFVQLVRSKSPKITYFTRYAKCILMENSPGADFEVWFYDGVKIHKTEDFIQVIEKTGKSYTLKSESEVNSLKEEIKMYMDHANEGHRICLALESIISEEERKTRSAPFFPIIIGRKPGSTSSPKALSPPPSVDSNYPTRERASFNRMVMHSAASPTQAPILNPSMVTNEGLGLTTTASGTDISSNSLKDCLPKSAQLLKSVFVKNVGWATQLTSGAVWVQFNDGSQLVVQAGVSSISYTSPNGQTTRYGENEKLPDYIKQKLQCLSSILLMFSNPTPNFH

Chain of NEK7 (Q8TDX7 whole entry): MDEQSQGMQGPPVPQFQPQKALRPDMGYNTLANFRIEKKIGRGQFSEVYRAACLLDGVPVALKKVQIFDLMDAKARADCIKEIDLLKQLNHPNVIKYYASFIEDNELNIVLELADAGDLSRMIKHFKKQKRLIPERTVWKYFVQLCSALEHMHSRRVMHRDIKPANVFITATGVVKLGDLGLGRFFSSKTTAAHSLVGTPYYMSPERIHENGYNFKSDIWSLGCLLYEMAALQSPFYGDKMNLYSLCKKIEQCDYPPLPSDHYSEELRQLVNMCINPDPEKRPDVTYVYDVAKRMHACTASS
Chain of EphA7 (Q15375 whole entry): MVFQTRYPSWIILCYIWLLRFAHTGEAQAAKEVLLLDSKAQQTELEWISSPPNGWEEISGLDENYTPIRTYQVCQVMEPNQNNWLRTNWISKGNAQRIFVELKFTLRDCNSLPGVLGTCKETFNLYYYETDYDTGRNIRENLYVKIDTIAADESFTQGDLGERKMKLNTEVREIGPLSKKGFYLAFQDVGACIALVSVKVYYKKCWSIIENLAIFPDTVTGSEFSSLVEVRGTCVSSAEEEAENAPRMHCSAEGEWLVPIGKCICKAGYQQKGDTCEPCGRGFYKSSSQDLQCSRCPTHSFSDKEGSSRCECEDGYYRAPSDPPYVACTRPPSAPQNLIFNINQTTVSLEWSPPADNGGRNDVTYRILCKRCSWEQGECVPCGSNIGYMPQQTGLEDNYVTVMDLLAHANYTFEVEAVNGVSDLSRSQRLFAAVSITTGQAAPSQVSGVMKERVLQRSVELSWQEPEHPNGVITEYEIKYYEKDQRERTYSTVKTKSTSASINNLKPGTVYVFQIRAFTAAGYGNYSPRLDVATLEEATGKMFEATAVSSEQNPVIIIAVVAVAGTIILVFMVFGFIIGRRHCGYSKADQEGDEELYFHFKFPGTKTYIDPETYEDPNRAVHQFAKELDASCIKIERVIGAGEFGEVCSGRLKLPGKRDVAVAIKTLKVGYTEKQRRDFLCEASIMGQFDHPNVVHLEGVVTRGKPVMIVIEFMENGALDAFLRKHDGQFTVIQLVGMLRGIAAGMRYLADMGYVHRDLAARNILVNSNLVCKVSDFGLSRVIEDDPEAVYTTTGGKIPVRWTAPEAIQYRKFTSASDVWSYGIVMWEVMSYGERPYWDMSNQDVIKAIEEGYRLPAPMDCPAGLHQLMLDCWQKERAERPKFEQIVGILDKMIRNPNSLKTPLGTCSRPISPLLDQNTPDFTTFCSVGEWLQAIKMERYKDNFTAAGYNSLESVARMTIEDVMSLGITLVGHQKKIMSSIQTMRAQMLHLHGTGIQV

Q: For `CNc1ncc2cc(-c3ccc(-c4cccc(C)n4)cc3Cl)c(=O)n(CC3OCC(N)CO3)c2n1` (stereo not shown) [compound 2, G-5555], which “dTm G-5555 (2)” value (DRAK2; 10 µM, binder) is on record?
A: Its value is -0.3 °C.

Q: And the “dTm G-5555 (2)” value (EphA7; 10 µM, binder)?
A: Its value is 4.1 °C.

Q: And the “dTm G-5555 (2)” value (MAP3K5; 10 µM, binder)?
A: Its value is 8.9 °C.

Q: And the “dTm G-5555 (2)” value (NEK7; 10 µM, binder)?
A: The value was 0.1 °C.

Q: And the “dTm G-5555 (2)” value (PLK4; 10 µM, binder)?
A: Its value is 3.4 °C.

Q: `CNc1ncc2cc(-c3cc(Br)ccc3Cl)c(=O)n(CCCCN)c2n1` [compound 6, 8-(4-Aminobutyl)-6-(5-bromo-2-chlorophenyl)-2-(methylamino)pyrido[2,3-d]pyrimidin-7(8H)-one] was tested. Which ΔTm at 10 µM (DRAK2; read-out: dTm 6) did it give?
A: The ΔTm at 10 µM was -0.2 °C.

Q: What about the ΔTm at 10 µM (EphA7; read-out: dTm 6) of the same compound?
A: Its ΔTm at 10 µM is 2.7 °C.

Q: And the ΔTm at 10 µM (MAP3K5; read-out: dTm 6)?
A: The ΔTm at 10 µM was 0.9 °C.

Q: What about the ΔTm at 10 µM (NEK7; read-out: dTm 6) of the same compound?
A: Its ΔTm at 10 µM is -1 °C.

Q: What about the ΔTm at 10 µM (PLK4; read-out: dTm 6) of the same compound?
A: The ΔTm at 10 µM was 0.4 °C.

Q: `CNc1ncc2cc(-c3cc(F)ccc3F)c(=O)n(CCCCN)c2n1` [compound 5, 8-(4-Aminobutyl)-6-(2,5-difluorophenyl)-2-(methylamino)pyrido[2,3-d]pyrimidin-7(8H)-one] was tested. Which ΔTm at 10 µM (DRAK2; read-out: dTm MR22 (5)) did it give?
A: The ΔTm at 10 µM was 0.1 °C.

Q: What about the ΔTm at 10 µM (EphA7; read-out: dTm MR22 (5)) of the same compound?
A: Its ΔTm at 10 µM is -1.6 °C.

Q: What about the ΔTm at 10 µM (MAP3K5; read-out: dTm MR22 (5)) of the same compound?
A: Its ΔTm at 10 µM is 1 °C.

Q: And the ΔTm at 10 µM (NEK7; read-out: dTm MR22 (5))?
A: Its ΔTm at 10 µM is -1.3 °C.

Q: And the ΔTm at 10 µM (PLK4; read-out: dTm MR22 (5))?
A: Its ΔTm at 10 µM is 0.3 °C.

Q: With `CNc1ncc2cc(-c3ccccc3Cl)c(=O)n(CCCCN)c2n1` [compound 4, 8-(4-Aminobutyl)-6-(2-chlorophenyl)-2-(methylamino)pyrido[2,3-d]pyrimidin-7(8H)-one] as the compound, how does the ΔTm at 10 µM (DRAK2; read-out: dTm MR21 (4)) read?
A: Its ΔTm at 10 µM is -0.5 °C.

Q: What about the ΔTm at 10 µM (EphA7; read-out: dTm MR21 (4)) of the same compound?
A: Its ΔTm at 10 µM is 1.8 °C.

Q: What about the ΔTm at 10 µM (MAP3K5; read-out: dTm MR21 (4)) of the same compound?
A: The ΔTm at 10 µM was 2.9 °C.

Q: And the ΔTm at 10 µM (NEK7; read-out: dTm MR21 (4))?
A: The ΔTm at 10 µM was 0.1 °C.

Q: And the ΔTm at 10 µM (PLK4; read-out: dTm MR21 (4))?
A: The ΔTm at 10 µM was 0 °C.

Q: For `CNc1ncc2cc(-c3cc(Br)ccc3Cl)c(=O)n(C[C@H]3OC[C@H](N)CO3)c2n1` [compound 7, 8-(((2r,5r)-5-Amino-1,3-dioxan-2-yl)methyl)-6-(5-bromo-2-chlorophenyl)-2-(methylamino)pyrido[2,3-d]pyrimidin-7(8H)-one], which ΔTm at 10 µM (DRAK2; read-out: dTm 7) is on record?
A: The ΔTm at 10 µM was 0.1 °C.

Q: And the ΔTm at 10 µM (EphA7; read-out: dTm 7)?
A: Its ΔTm at 10 µM is -0.5 °C.

Q: What about the ΔTm at 10 µM (MAP3K5; read-out: dTm 7) of the same compound?
A: Its ΔTm at 10 µM is 0.8 °C.

Q: And the ΔTm at 10 µM (NEK7; read-out: dTm 7)?
A: The ΔTm at 10 µM was -0.2 °C.

Q: What about the ΔTm at 10 µM (PLK4; read-out: dTm 7) of the same compound?
A: Its ΔTm at 10 µM is 0.4 °C.
